Assay results as given in PubChem BioAssay AID1963980 (Molecular Pharmacology Branch, DTP, NCI, 2024).
Blank lines part the entries; values can stand above or below the compound they belong to.

Tested on: 475296-252-R-J1-PDC spheroid viability
Assay: Anticancer human tumor 475296-252-R-J1-PDC patient-derived rectal carcinoma cell line growth inhibition [PI3K]
Conditions: spheroids with HUVEC and MSC; for IC50: curve of first compound; for viability, T/C: stronger effect = lower value
Summary of the method: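 We assembled tumor spheroids that included a stromal compartment of HUVEC and MSCs, then exposed them to targeted agents alone and together with PI3K pathway inhibitors. Concentration series descended by half-log from clinically achievable Cmax levels. Viability served as the endpoint.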

[1] = second compound 0.00316 µM, first compound 0.000316 µM
[2] = second compound 0.00316 µM, first compound 0.001 µM
[3] = second compound 0.00316 µM, first compound 0.00316 µM
[4] = second compound 0.00316 µM, first compound 0.01 µM
[5] = second compound 0.00316 µM, first compound 0.0316 µM
[6] = second compound 0.00316 µM, first compound 0.1 µM
[7] = second compound 0.01 µM, first compound 0.000316 µM
[8] = second compound 0.01 µM, first compound 0.001 µM
[9] = second compound 0.01 µM, first compound 0.00316 µM
[10] = second compound 0.01 µM, first compound 0.01 µM
[11] = second compound 0.01 µM, first compound 0.0316 µM
[12] = second compound 0.01 µM, first compound 0.1 µM
[13] = second compound 0.0316 µM, first compound 0.000316 µM
[14] = second compound 0.0316 µM, first compound 0.001 µM
[15] = second compound 0.0316 µM, first compound 0.00316 µM
[16] = second compound 0.0316 µM, first compound 0.01 µM
[17] = second compound 0.0316 µM, first compound 0.0316 µM
[18] = second compound 0.0316 µM, first compound 0.1 µM
[19] = second compound 0.1 µM, first compound 0.000316 µM
[20] = second compound 0.1 µM, first compound 0.001 µM
[21] = second compound 0.1 µM, first compound 0.00316 µM
[22] = second compound 0.1 µM, first compound 0.01 µM
[23] = second compound 0.1 µM, first compound 0.0316 µM
[24] = second compound 0.1 µM, first compound 0.1 µM
[25] = second compound 0.316 µM, first compound 0.000316 µM
[26] = second compound 0.316 µM, first compound 0.001 µM
[27] = second compound 0.316 µM, first compound 0.00316 µM
[28] = second compound 0.316 µM, first compound 0.01 µM
[29] = second compound 0.316 µM, first compound 0.0316 µM
[30] = second compound 0.316 µM, first compound 0.1 µM
[31] = second compound 1 µM, first compound 0.000316 µM
[32] = second compound 1 µM, first compound 0.001 µM
[33] = second compound 1 µM, first compound 0.00316 µM
[34] = second compound 1 µM, first compound 0.01 µM
[35] = second compound 1 µM, first compound 0.0316 µM
[36] = second compound 1 µM, first compound 0.1 µM
[37] = second compound 0.00316 µM, first compound 0.316 µM
[38] = second compound 0.00316 µM, first compound 1 µM
[39] = second compound 0.00316 µM, first compound 3.16 µM
[40] = second compound 0.00316 µM, first compound 10 µM
[41] = second compound 0.01 µM, first compound 0.316 µM
[42] = second compound 0.01 µM, first compound 1 µM
[43] = second compound 0.01 µM, first compound 3.16 µM
[44] = second compound 0.01 µM, first compound 10 µM
[45] = second compound 0.0316 µM, first compound 0.316 µM
[46] = second compound 0.0316 µM, first compound 1 µM
[47] = second compound 0.0316 µM, first compound 3.16 µM
[48] = second compound 0.0316 µM, first compound 10 µM
[49] = second compound 0.1 µM, first compound 0.316 µM
[50] = second compound 0.1 µM, first compound 1 µM
[51] = second compound 0.1 µM, first compound 3.16 µM
[52] = second compound 0.1 µM, first compound 10 µM
[53] = second compound 0.316 µM, first compound 0.316 µM
[54] = second compound 0.316 µM, first compound 1 µM
[55] = second compound 0.316 µM, first compound 3.16 µM
[56] = second compound 0.316 µM, first compound 10 µM
[57] = second compound 1 µM, first compound 0.316 µM
[58] = second compound 1 µM, first compound 1 µM
[59] = second compound 1 µM, first compound 3.16 µM
[60] = second compound 1 µM, first compound 10 µM
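Further: spheroids exposed to agents for seven days before readout.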

IC50 (second compound 0.00316 µM): > 100 nM
IC50 (second compound 0.01 µM): > 100 nM
IC50 (second compound 0.0316 µM): > 100 nM
IC50 (second compound 0.1 µM): > 100 nM
IC50 (second compound 0.316 µM): > 100 nM
IC50 (second compound 1 µM): > 100 nM
Structure (SMILES): CC(=O)c1c(C)c2cnc(Nc3ccc(N4CCNCC4)cn3)nc2n(C2CCCC2)c1=O + COc1c(OCCCN2CCOCC2)ccc2c3n(c(=NC(=O)c4cnc(N)nc4)nc12)CCN3
viability, T/C [1]: 108%
viability, T/C [2]: 101%
viability, T/C [3]: 104%
viability, T/C [4]: 119%
viability, T/C [5]: 113%
viability, T/C [6]: 108%
viability, T/C [7]: 97.4%
viability, T/C [8]: 99.5%
viability, T/C [9]: 95.9%
viability, T/C [10]: 99.5%
viability, T/C [11]: 98.5%
viability, T/C [12]: 99.8%
viability, T/C [13]: 96.2%
viability, T/C [14]: 86%
viability, T/C [15]: 90.5%
viability, T/C [16]: 98.7%
viability, T/C [17]: 105%
viability, T/C [18]: 99.8%
viability, T/C [19]: 77.8%
viability, T/C [20]: 82.3%
viability, T/C [21]: 97.6%
viability, T/C [22]: 77.8%
viability, T/C [23]: 83.9%
viability, T/C [24]: 84.1%
viability, T/C [25]: 71.6%
viability, T/C [26]: 75.5%
viability, T/C [27]: 70.7%
viability, T/C [28]: 72.6%
viability, T/C [29]: 82.8%
viability, T/C [30]: 84.6%
viability, T/C [31]: 60.7%
viability, T/C [32]: 56.7%
viability, T/C [33]: 69.3%
viability, T/C [34]: 61.5%
viability, T/C [35]: 59.7%
viability, T/C [36]: 52.4%

IC50 (second compound 0.00316 µM): > 100 nM
IC50 (second compound 0.01 µM): > 100 nM
IC50 (second compound 0.0316 µM): > 100 nM
IC50 (second compound 0.1 µM): 98.7 nM
IC50 (second compound 0.316 µM): 49 nM
IC50 (second compound 1 µM): 34.4 nM
Structure (SMILES): CC(C)n1nc(-c2ccc3oc(N)nc3c2)c2c(N)ncnc21 + COc1c(OCCCN2CCOCC2)ccc2c3n(c(=NC(=O)c4cnc(N)nc4)nc12)CCN3
viability, T/C [1]: 96.8%
viability, T/C [2]: 99.5%
viability, T/C [3]: 84.6%
viability, T/C [4]: 73.2%
viability, T/C [5]: 81.4%
viability, T/C [6]: 56.9%
viability, T/C [7]: 96.5%
viability, T/C [8]: 90.7%
viability, T/C [9]: 97.4%
viability, T/C [10]: 92%
viability, T/C [11]: 75.2%
viability, T/C [12]: 64.3%
viability, T/C [13]: 91.4%
viability, T/C [14]: 85.8%
viability, T/C [15]: 101%
viability, T/C [16]: 82%
viability, T/C [17]: 81.9%
viability, T/C [18]: 51.7%
viability, T/C [19]: 95.2%
viability, T/C [20]: 84.8%
viability, T/C [21]: 78.8%
viability, T/C [22]: 79.6%
viability, T/C [23]: 68.8%
viability, T/C [24]: 48.3%
viability, T/C [25]: 71.7%
viability, T/C [26]: 67.6%
viability, T/C [27]: 68.2%
viability, T/C [28]: 73%
viability, T/C [29]: 56.5%
viability, T/C [30]: 35.2%
viability, T/C [31]: 60.8%
viability, T/C [32]: 56.7%
viability, T/C [33]: 59.5%
viability, T/C [34]: 55.6%
viability, T/C [35]: 51.6%
viability, T/C [36]: 35.6%

IC50 (second compound 0.00316 µM): > 10000 nM
IC50 (second compound 0.01 µM): > 10000 nM
IC50 (second compound 0.0316 µM): > 10000 nM
IC50 (second compound 0.1 µM): > 10000 nM
IC50 (second compound 0.316 µM): > 10000 nM
IC50 (second compound 1 µM): > 10000 nM
Structure (SMILES): CCCS(=O)(=O)Nc1ccc(F)c(C(=O)c2c[nH]c3ncc(-c4ccc(Cl)cc4)cc23)c1F + COc1c(OCCCN2CCOCC2)ccc2c3n(c(=NC(=O)c4cnc(N)nc4)nc12)CCN3
viability, T/C [5]: 102%
viability, T/C [6]: 85.2%
viability, T/C [37]: 98.7%
viability, T/C [38]: 103%
viability, T/C [39]: 98.4%
viability, T/C [40]: 105%
viability, T/C [11]: 94%
viability, T/C [12]: 99.5%
viability, T/C [41]: 87.7%
viability, T/C [42]: 86.9%
viability, T/C [43]: 94.2%
viability, T/C [44]: 100%
viability, T/C [17]: 91.9%
viability, T/C [18]: 91.1%
viability, T/C [45]: 93.8%
viability, T/C [46]: 94.8%
viability, T/C [47]: 83.2%
viability, T/C [48]: 87.4%
viability, T/C [23]: 83%
viability, T/C [24]: 80%
viability, T/C [49]: 84.5%
viability, T/C [50]: 78.8%
viability, T/C [51]: 66.4%
viability, T/C [52]: 71.3%
viability, T/C [29]: 67.6%
viability, T/C [30]: 69.8%
viability, T/C [53]: 64.9%
viability, T/C [54]: 70.2%
viability, T/C [55]: 57.5%
viability, T/C [56]: 64.6%
viability, T/C [35]: 62.5%
viability, T/C [36]: 64.1%
viability, T/C [57]: 79.8%
viability, T/C [58]: 57.9%
viability, T/C [59]: 73.3%
viability, T/C [60]: 58.1%

IC50 (second compound 0.00316 µM): > 10000 nM
IC50 (second compound 0.01 µM): > 10000 nM
IC50 (second compound 0.0316 µM): > 10000 nM
IC50 (second compound 0.1 µM): > 10000 nM
IC50 (second compound 0.316 µM): > 10000 nM
IC50 (second compound 1 µM): > 10000 nM
Structure (SMILES): CNC(=O)c1ccc(N2C(=S)N(c3ccc(C#N)c(C(F)(F)F)c3)C(=O)C2(C)C)cc1F + COc1c(OCCCN2CCOCC2)ccc2c3n(c(=NC(=O)c4cnc(N)nc4)nc12)CCN3
viability, T/C [5]: 99.1%
viability, T/C [6]: 107%
viability, T/C [37]: 101%
viability, T/C [38]: 95.8%
viability, T/C [39]: 103%
viability, T/C [40]: 108%
viability, T/C [11]: 96.6%
viability, T/C [12]: 94.7%
viability, T/C [41]: 102%
viability, T/C [42]: 97.5%
viability, T/C [43]: 100%
viability, T/C [44]: 96.2%
viability, T/C [17]: 76%
viability, T/C [18]: 88.5%
viability, T/C [45]: 89.7%
viability, T/C [46]: 98.1%
viability, T/C [47]: 91.9%
viability, T/C [48]: 107%
viability, T/C [23]: 75.7%
viability, T/C [24]: 68.5%
viability, T/C [49]: 83.1%
viability, T/C [50]: 81%
viability, T/C [51]: 89.4%
viability, T/C [52]: 87.3%
viability, T/C [29]: 76.6%
viability, T/C [30]: 68.1%
viability, T/C [53]: 71.7%
viability, T/C [54]: 80.9%
viability, T/C [55]: 70.5%
viability, T/C [56]: 72%
viability, T/C [35]: 72.5%
viability, T/C [36]: 72%
viability, T/C [57]: 50.6%
viability, T/C [58]: 60.1%
viability, T/C [59]: 63.5%
viability, T/C [60]: 61.5%
